This assay has as its target T1, Androgen Receptor (Homo sapiens, UniProt P10275).
T1 construct: endogenous in cells; host or cells: VCaP cells
T1 sequence (P10275 1-920): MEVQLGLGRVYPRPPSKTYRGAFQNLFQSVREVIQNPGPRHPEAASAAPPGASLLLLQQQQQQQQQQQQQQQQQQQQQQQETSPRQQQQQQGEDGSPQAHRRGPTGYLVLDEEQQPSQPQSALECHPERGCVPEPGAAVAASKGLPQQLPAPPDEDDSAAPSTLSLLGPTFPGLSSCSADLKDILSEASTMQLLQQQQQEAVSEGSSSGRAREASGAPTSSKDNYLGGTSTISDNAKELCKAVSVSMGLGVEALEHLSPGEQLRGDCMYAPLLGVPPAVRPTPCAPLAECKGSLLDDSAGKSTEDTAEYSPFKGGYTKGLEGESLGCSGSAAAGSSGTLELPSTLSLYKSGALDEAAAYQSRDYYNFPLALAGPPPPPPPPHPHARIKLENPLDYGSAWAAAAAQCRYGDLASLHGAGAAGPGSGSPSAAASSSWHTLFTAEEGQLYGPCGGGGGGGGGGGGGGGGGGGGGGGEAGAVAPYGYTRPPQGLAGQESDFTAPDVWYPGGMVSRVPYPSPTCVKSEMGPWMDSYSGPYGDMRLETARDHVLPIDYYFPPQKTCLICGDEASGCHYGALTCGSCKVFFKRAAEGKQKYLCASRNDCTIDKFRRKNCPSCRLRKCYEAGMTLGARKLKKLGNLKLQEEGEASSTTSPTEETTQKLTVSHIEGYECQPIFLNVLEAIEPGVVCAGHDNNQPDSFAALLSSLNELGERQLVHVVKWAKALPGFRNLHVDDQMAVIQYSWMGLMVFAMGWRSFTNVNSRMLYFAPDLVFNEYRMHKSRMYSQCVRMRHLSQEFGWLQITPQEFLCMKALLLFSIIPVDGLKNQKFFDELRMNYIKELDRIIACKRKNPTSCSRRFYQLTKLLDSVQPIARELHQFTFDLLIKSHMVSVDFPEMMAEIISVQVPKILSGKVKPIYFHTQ
Description: Androgen Receptor ELISA assay (PathScan AR ELISA) in VCaP cells: AR degradation, Dmax and DC50. Format: cell-based. In outline:
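After 24 h exposure of VCaP cells (charcoal-stripped serum, 0.1 nM R1881 agonist, 0.1% DMSO) to seven half-log compound concentrations, residual AR in lysates was measured by PathScan ELISA (TMB absorbance, 450 nm). Cells were plated at 30,000/well and grown at least 3 days beforehand.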
In general terms: In an ELISA, binding on a coated surface is turned into a signal by an enzyme label.

[1] abbreviates: VCaP cells; Table 36; read-out: VCaP DC50.
Where [2] appears, read: VCaP, read-out: VCaP Dmax (%), VCaP cells; Table 36.
[3] abbreviates: VCaP, VCaP cells; Table 36; read-out: VCaP Dmax (%).
[4] abbreviates: read-out: VCaP DC50; VCaP cells; Table 36.

What is called DC50 is the concentration giving 50% degradation. A word on the Dmax: it is the greatest extent of degradation seen.

Like-named read-outs stand apart in the source and are kept apart here.

Regarding `Cc1ncsc1-c1ccc([C@H](C)NC(=O)[C@@H]2C[C@@H](O)CN2C(=O)[C@@H](NC(=O)CN2CCN(CCC3CCN(c4ccc(C(=O)N[C@H]5C(C)(C)[C@H](Oc6ccc(C#N)c(Cl)c6)C5(C)C)cn4)C3)CC2)C(C)(C)C)cc1` (stereo partly drawn) [Example 829, N-((1r,3r)-3-(3-chloro-4-cyanophenoxy)-2,2,4,4-tetramethylcyclobutyl)-6-(3-(2-(4-(2-(((S)-1-((2S,4R)-4-hydroxy-2-(((S)-1-(4-(4-methylthiazol-5-yl)phenyl)ethyl)carbamoyl)pyrrolidin-1-yl)-3,3-dimethyl-1-oxobutan-2-yl)amino)-2-oxoethyl)piperazin-1-yl)ethyl)pyrrolidin-1-yl)nicotinamide], under setting [1], the 50% degradation concentration (DC50) was less than 50 nM. In addition, for the setting “VCaP, read-out: VCaP Dmax (%)”, the Dmax is more than 71%.

In the case of `Cc1ncsc1-c1ccc([C@H](C)NC(=O)[C@@H]2C[C@@H](O)CN2C(=O)[C@H](c2cc(CCCCN3CCN(c4ccc(C(=O)N[C@H]5C(C)(C)[C@H](Oc6ccc(C#N)c(Cl)c6)C5(C)C)cn4)CC3)no2)C(C)C)cc1` [Example 830, N-((1r,3r)-3-(3-chloro-4-cyanophenoxy)-2,2,4,4-tetramethylcyclobutyl)-6-(4-(4-(5-((S)-1-((2S, 4R)-4-hydroxy-2-(((S)-1-(4-(4-methylthiazol-5-yl)phenyl)ethyl)carbamoyl)pyrrolidin-1-yl)-3-methyl-1-oxobutan-2-yl)isoxazol-3-yl)butyl)piperazin-1-yl)nicotinamide], the DC50 under setting [1] is more than 501 nM. In addition, under setting [2], the Dmax is less than 25%.

Take `Cc1ncsc1-c1ccc([C@H](C)NC(=O)[C@@H]2C[C@@H](O)CN2C(=O)[C@@H](c2cc(CCCCN3CCN(c4ccc(C(=O)N[C@H]5C(C)(C)[C@H](Oc6ccc(C#N)c(Cl)c6)C5(C)C)cn4)CC3)no2)C(C)C)cc1` [Example 831, N-((1r,3r)-3-(3-chloro-4-cyanophenoxy)-2,2,4,4-tetramethylcyclobutyl)-6-(4-(4-(5-((R)-1-((2S, 4R)-4-hydroxy-2-(((S)-1-(4-(4-methylthiazol-5-yl)phenyl)ethyl)carbamoyl)pyrrolidin-1-yl)-3-methyl-1-oxobutan-2-yl)isoxazol-3-yl)butyl)piperazin-1-yl)nicotinamide]: the DC50 under setting [1] was less than 50 nM. Moreover, the Dmax under setting [2] is more than 71%.

On to `Cc1ncsc1-c1ccc([C@H](C)NC(=O)[C@@H]2C[C@@H](O)CN2C(=O)[C@@H](NC(=O)CN[C@H]2C[C@H](OC3CCN(c4ccc(C(=O)N[C@H]5C(C)(C)[C@H](Oc6ccc(C#N)c(Cl)c6)C5(C)C)cn4)CC3)C2)C(C)(C)C)cc1` [Example 832, N-((1r,3r)-3-(3-chloro-4-cyanophenoxy)-2,2,4,4-tetramethylcyclobutyl)-6-(4-((1S,3r)-3-((2-(((S)-1-((2S,4R)-4-hydroxy-2-(((S)-1-(4-(4-methylthiazol-5-yl)phenyl)ethyl)carbamoyl)pyrrolidin-1-yl)-3,3-dimethyl-1-oxobutan-2-yl)amino)-2-oxoethyl)amino)cyclobutoxy)piperidin-1-yl)nicotinamide], for which the DC50 under setting [1] is less than 50 nM. The Dmax (VCaP, read-out: VCaP Dmax (%)) was more than 71%.

For `Cc1ncsc1-c1ccc([C@H](C)NC(=O)[C@@H]2C[C@@H](O)CN2C(=O)[C@@H](NC(=O)CN2CCN(CCC3CCN(c4ccc(C(=O)N[C@H]5C(C)(C)[C@H](Oc6ccc(C#N)c(Cl)c6)C5(C)C)cn4)CC3)CC2)C(C)(C)C)cc1` [Example 833, N-((1r,3r)-3-(3-chloro-4-cyanophenoxy)-2,2,4,4-tetramethylcyclobutyl)-6-(4-(2-(4-(2-(((S)-1-((2S,4R)-4-hydroxy-2-(((S)-1-(4-(4-methylthiazol-5-yl)phenyl)ethyl)carbamoyl)pyrrolidin-1-yl)-3,3-dimethyl-1-oxobutan-2-yl)amino)-2-oxoethyl)piperazin-1-yl)ethyl)piperidin-1-yl)nicotinamide], the 50% degradation concentration (DC50) under setting [1] is less than 50 nM. Further, the greatest degradation seen (Dmax) under setting [3] was more than 71%.

With `Cc1ncsc1-c1ccc(C(CO)NC(=O)[C@@H]2CC(O)CN2C(=O)[C@@H](NC(=O)CN2CCN(CCN3CCN(c4ccc(C(=O)NC5C(C)(C)C(Oc6ccc(C#N)c(Cl)c6)C5(C)C)cn4)CC3)CC2)C(C)(C)C)cc1` (stereo partly drawn) [Example 834, N-((1r,3r)-3-(3-chloro-4-cyanophenoxy)-2,2,4,4-tetramethylcyclobutyl)-6-(4-(2-(4-(2-(((S)-1-((2S,4R)-4-hydroxy-2-(((R)-2-hydroxy-1-(4-(4-methylthiazol-5-yl)phenyl)ethyl)carbamoyl)pyrrolidin-1-yl)-3,3-dimethyl-1-oxobutan-2-yl)amino)-2-oxoethyl)piperazin-1-yl)ethyl)piperazin-1-yl)nicotinamide], the half-maximal degradation concentration (DC50) under setting [1] is less than 50 nM. Besides, the Dmax under setting [3] was more than 71%.

For the compound `Cc1ncsc1-c1ccc([C@H](C)NC(=O)C2C[C@@H](O)CN2C(=O)C(NC(=O)CN2C3CCC2CN(CCCCc2ccc(C(=O)N[C@H]4C(C)(C)[C@H](Oc5ccc(C#N)c(Cl)c5)C4(C)C)cc2)C3)C(C)(C)C)cc1` (stereo partly drawn) [Example 835, (2S,4R)-1-((2S)-2-(2-(3-(4-(4-(((1r,3r)-3-(3-chloro-4-cyanophenoxy)-2,2,4,4-tetramethylcyclobutyl)carbamoyl)phenyl)butyl)-3,8-diazabicyclo[3.2.1]octan-8-yl)acetamido)-3,3-dimethylbutanoyl)-4-hydroxy-N-((S)-1-(4-(4-methylthiazol-5-yl)phenyl)ethyl) pyrrolidine-2-carboxamide], the Dmax (VCaP, read-out: VCaP Dmax (%)) is more than 71%. The DC50 under setting [4] was less than 50 nM.

Take `Cc1ncsc1-c1ccc([C@H](CO)NC(=O)[C@@H]2C[C@@H](O)CN2C(=O)[C@@H](NC(=O)CN2C3CCC2CN(CCCCc2ccc(C(=O)N[C@H]4C(C)(C)[C@H](Oc5ccc(C#N)c(Cl)c5)C4(C)C)cc2)C3)C(C)(C)C)cc1` [Example 836, (2S,4R)-1-((2S)-2-(2-(3-(4-(4-(((1r,3r)-3-(3-chloro-4-cyanophenoxy)-2,2,4,4-tetramethylcyclobutyl)carbamoyl)phenyl)butyl)-3,8-diazabicyclo[3.2.1]octan-8-yl)acetamido)-3,3-dimethylbutanoyl)-4-hydroxy-N-((R)-2-hydroxy-1-(4-(4-methylthiazol-5-yl)phenyl)ethyl) pyrrolidine-2-carboxamide]: under “VCaP, read-out: VCaP Dmax (%)”, the Dmax was more than 71%. In addition, the DC50 under setting [4] was less than 50 nM.

As for `Cc1ncsc1-c1ccc([C@H](C)NC(=O)[C@@H]2C[C@@H](O)CN2C(=O)[C@@H](NC(=O)CN2CCN(CCCc3ccc(C(=O)N[C@H]4C(C)(C)[C@H](Oc5ccc(C#N)c(Cl)c5)C4(C)C)cn3)CC2)C(C)(C)C)cc1` [Example 837, N-((1r,3r)-3-(3-chloro-4-cyanophenoxy)-2,2,4,4-tetramethylcyclobutyl)-6-(3-(4-(2-(((S)-1-((2S, 4R)-4-hydroxy-2-(((S)-1-(4-(4-methylthiazol-5-yl)phenyl)ethyl)carbamoyl)pyrrolidin-1-yl)-3,3-dimethyl-1-oxobutan-2-yl)amino)-2-oxoethyl)piperazin-1-yl)propyl) nicotinamide], under setting [1], the DC50 is less than 50 nM. Under setting [3], the Dmax was more than 71%.

As for `Cc1ncsc1-c1ccc([C@H](C)NC(=O)[C@@H]2C[C@@H](O)CN2C(=O)C(c2cc(CCN3CCN(c4ccc(C(=O)N[C@H]5C(C)(C)[C@H](Oc6ccc(C#N)c(Cl)c6)C5(C)C)cn4)CC3)no2)C(C)C)cc1` (stereo partly drawn) [Example 838, N-((1r,3r)-3-(3-chloro-4-cyanophenoxy)-2,2,4,4-tetramethylcyclobutyl)-6-(4-(2-(5-(1-((2S,4R)-4-hydroxy-2-(((S)-1-(4-(4-methylthiazol-5-yl)phenyl)ethyl)carbamoyl)pyrrolidin-1-yl)-3-methyl-1-oxobutan-2-yl)isoxazol-3-yl)ethyl)piperazin-1-yl) nicotinamide], the DC50 under setting [1] is less than 50 nM. The Dmax under setting [3] was 51 to 70%.

On to `Cc1ncsc1-c1ccc([C@H](C)NC(=O)[C@@H]2C[C@@H](O)CN2C(=O)[C@@H](NC(=O)CN2C3CCC2CN(CCCc2ccc(C(=O)N[C@H]4C(C)(C)[C@H](Oc5ccc(C#N)c(Cl)c5)C4(C)C)cn2)C3)C(C)(C)C)cc1` [Example 839, N-((1r,3r)-3-(3-chloro-4-cyanophenoxy)-2,2,4,4-tetramethylcyclobutyl)-6-(3-(8-(2-(((S)-1-((2S, 4R)-4-hydroxy-2-(((S)-1-(4-(4-methylthiazol-5-yl)phenyl)ethyl)carbamoyl)pyrrolidin-1-yl)-3,3-dimethyl-1-oxobutan-2-yl)amino)-2-oxoethyl)-3,8-diazabicyclo[3.2.1]octan-3-yl)propyl) nicotinamide], for which the Dmax (VCaP, read-out: VCaP Dmax (%)) fell in the range of 51 to 70%. Also, under setting [4], the DC50 is less than 50 nM.
